# Measured values reported in PMC11206297, “Targeting NAD Metabolism: Rational Design, Synthesis and In Vitro Evaluation of NAMPT/PARP1 Dual-Target Inhibitors as Anti-Breast Cancer Agents” (Molecules, 2024).
# Legend:
# [1] = tested on: MDA-MB-468 cells; assay: Cell cycle analysis (PI staining, flow cytometry); format: cell-based; conditions: 48 h, several concentrations
# Experimental: Cell cycle distribution was determined using a DNA Content Quantitation Assay Kit (Solarbio, China). MDA-MB-468 cells were seeded in six-well plates and treated with various […]
# treatment, cells were harvested, ﬁxed in 70% ethanol at 4°C overnight, and washed with PBS.
# Cells were then incubated with RNase (100 µL) at 37°C for 30 minutes followed by propidium iodide (PI) staining (400 µL, 30 minutes, 4°C in the dark). Cell cycle distribution was analyzed using an Accuri C6 Plus ﬂow cytometer (BD Biosciences, CA) and data were processed using […]
# Figure S5. DDY02 induced cell cycle of MDA-MB-468 cells arrest in the G1 phase.
# (1 picture or pasted object on this page, not shown here)
# [2] = target: NAMPT (Homo sapiens, UniProt P43490); assay: NAMPT enzymatic inhibition assay (fluorescence, coupled NMNAT/alcohol dehydrogenase); format: biochemical; conditions: mean ± SD of at least two independent experiments in duplicate
# [3] = tested on: MDA-MB-468 cells; assay: Colony formation (clonogenic) assay; format: cell-based; conditions: MDA-MB-468, 7 days
# Experimental: MDA-MB-468 cells were plated in 6-well plates at a density of 500 cells/well and allowed to grow for 7 days to promote colony formation. Following the incubation period, cells were washed with PBS, fixed in methanol for 15 min, and stained with 1% crystal violet for 1 h. Subsequently, colonies were imaged and counted.
# [4] = tested on: MDA-MB-468 cells; assay: Annexin V-FITC/PI apoptosis assay (flow cytometry); format: cell-based; conditions: 72 h
# Experimental: To investigate whether DDY02 induced apoptosis in MDA-MB-468 cells, we performed the annexin V/PI double staining assay, and the staining results were analyzed by flow cytometry, dividing the results into four quadrants (Q1~Q4). In this representation, Q1 represents necrosis, Q2 represents late apoptosis, Q3 represents early apoptosis, and Q4 represents living cells.
# The Annexin V-FITC/PI cell apoptosis detection kit (KeyGen Biotech, Nanjing, China) was employed for the analysis of cell apoptosis. MDA-MB-468 cells (5 × 10^5 cells/mL) were seeded in six-well plates and treated with compounds at corresponding concentrations for 72 h. Subsequently, MDA-MB-468 cells were harvested and incubated with 5 μL of Annexin V-FITC and 5 μL of propidium iodide (PI) in the dark for 15 min at room temperature. Apoptosis data were assessed using flow cytometry (Accuri C6 Plus, BD Bioscience, San Jose, CA, USA).
# [5] = tested on: MDA-MB-468; assay: MTT cell viability assay, MDA-MB-468; format: cell-based; conditions: Homo sapiens, 72 h, mean ± SEM, read-out: Cytotoxicity IC50 MDA-MB-468
# Experimental: (§1) MDA-MB-468, MDA-MB-231, MCF-7, and MCF-10A cell lines were obtained from the National Collection of Authenticated Cell Culture, China. The cells were cultured in DMEM medium supplemented with 10% FBS and 1% penicillin/streptomycin, and maintained at 37 °C in a humidified atmosphere with 5% CO2.
# (§2) Cell viability was assessed using the MTT assay. Cells were seeded at a density of 3 × 10^3 cells per well in a 96-well plate and treated with various concentrations (0.05, 0.2, 0.8, 3.2, 6.4, 12.8 µM) of the compounds for 72 h. After incubation, 100 µL of MTT solution (0.5 mg/mL) was added to each well and further incubated for 4 h. The resulting formazan crystals were dissolved in 150 µL of DMSO, and the absorbance was measured at 570 nm using a microplate reader.
# [6] = tested on: MCF-7; assay: MTT cell viability assay, MCF-7; format: cell-based; conditions: Homo sapiens, MCF7, 72 h, mean ± SEM, read-out: Cytotoxicity IC50 MCF-7
# Experimental: as §1, §2
# [7] = tested on: MDA-MB-468 cells; assay: Cellular NAD level determination (NAD+/NADH WST-8 kit); format: cell-based
# Experimental: According to the manufacturer’s instructions, an NAD^+/NADH Assay kit with WST-8 (Beyotime, China) was used to measure the intracellular NAD level. The cells collected by centrifugation were added to NAD^+/NADH lysis buffer to obtain a cell lysate. After adding […] working solution, the lysate was incubated at 37 °C for 10 min, and then followed by the addition of color-developing solution. The total concentration of NADH and NAD can be measured by detecting the absorbance at 450 nm. To measure the concentration of NADH, the cell lysate was incubated at 60 °C for 30 min before adding […] working solution. Finally, the NAD content is obtained by the subtraction [NAD^+] = [NADH + NAD^+] − [NADH].
# [8] = target: PARP1 (Homo sapiens, UniProt P09874); assay: PARP1 enzymatic inhibition assay (ELISA, chemiluminescence); format: biochemical
# [9] = tested on: MDA-MB-468 cells; assay: Wound scratch cell migration assay; format: cell-based; conditions: up to 48 h
# Experimental: MDA-MB-468 cells were plated in 6-well plates at a density of 5 × 10^5 cells/well and allowed to incubate overnight. A scratch was carefully generated in the cell monolayer using a 10 µL pipette tip. […] Images were acquired at 0, 12, 24, and 48 h time points to monitor and analyze the migration of cells over the specified intervals.
# [10] = tested on: MDA-MB-468 cells; assay: Comet assay (DNA damage); format: cell-based; conditions: 24 h, several concentrations
# Experimental: The comet assay was conducted under alkaline conditions using the Comet Assay Kit (Beyotime, Shanghai, China) following the manufacturer’s guidelines. […] This mixture was spread onto microscope slides and immersed in lysis solution for 1 h. Electrophoresis was carried out in a horizontal apparatus at 25 V and 300 mA. After electrophoresis, slides were stained with propidium iodide (PI) for DNA visualization, and images were captured using a fluorescence inverted microscope.
# [11] = tested on: MDA-MB-468 cells; assay: Western blot of γ-H2AX; format: cell-based; conditions: 24 h
# Experimental: (§3) Cells were then lysed using RIPA buffer supplemented with protease and phosphatase inhibitors. Protein concentrations were determined using the BCA Protein Assay Kit (Thermo Fisher Scientific^TM, Waltham, MA, USA). Equal amounts of protein (20–30 µg) were separated by SDS-polyacrylamide gel electrophoresis and transferred to a polyvinylidene fluoride (PVDF) membrane. The membrane was blocked with 5% milk in PBS before incubation with primary antibodies. Primary antibodies against γ-H2AX (Cell Signaling Technology™, Danvers, MA, USA), BCL2 (Abcam™, Cambridge, UK), and β-actin (Proteintech™, Rosemont, IL, USA) were used. After overnight incubation at 4 °C, membranes were washed and incubated with HRP-conjugated secondary antibodies for 1 h. Protein bands were visualized using ECL reagents (Labgic Technology^TM, Beijing, China).
# [12] = tested on: MDA-MB-468 cells; assay: NMN rescue of cytotoxicity; format: cell-based; conditions: 200 μM NMN
# Text: NMN is the direct product of the NAMPT-catalyzed reaction. Excessive NMN can counteract the inhibitory effect of NAMPT inhibition. […] The reversal of DDY02’s efficacy by NMN underscores the compound’s mechanism of action and confirms the critical role of NAMPT inhibition in mediating its therapeutic effects. This observation also emphasizes the potential of NMN as a modulator in therapeutic scenarios involving NAMPT-targeted treatments.
# [13] = tested on: MCF-10A; assay: MTT cell viability assay, MCF-10A normal breast epithelial cells; format: cell-based, human
# Experimental: as §1, §2
# [14] = as above; format: cell-based, human; conditions: human, MCF-10A normal breast epithelial cells; MCF-10A; mean ± SEM; read-out: Cytotoxicity IC50
# Experimental: as §1, §2
# [15] = tested on: MDA-MB-468 cells; assay: Western blot of BCL2; format: cell-based; conditions: 24 h, several concentrations
# Experimental: as §3
# [16] = tested on: MDA-MB-231; assay: MTT cell viability assay, MDA-MB-231; format: cell-based; conditions: Homo sapiens, 72 h, mean ± SEM, read-out: Cytotoxicity IC50 MDA-MB-231
# Experimental: as §1, §2
# PARP1, sequence (P09874 whole entry): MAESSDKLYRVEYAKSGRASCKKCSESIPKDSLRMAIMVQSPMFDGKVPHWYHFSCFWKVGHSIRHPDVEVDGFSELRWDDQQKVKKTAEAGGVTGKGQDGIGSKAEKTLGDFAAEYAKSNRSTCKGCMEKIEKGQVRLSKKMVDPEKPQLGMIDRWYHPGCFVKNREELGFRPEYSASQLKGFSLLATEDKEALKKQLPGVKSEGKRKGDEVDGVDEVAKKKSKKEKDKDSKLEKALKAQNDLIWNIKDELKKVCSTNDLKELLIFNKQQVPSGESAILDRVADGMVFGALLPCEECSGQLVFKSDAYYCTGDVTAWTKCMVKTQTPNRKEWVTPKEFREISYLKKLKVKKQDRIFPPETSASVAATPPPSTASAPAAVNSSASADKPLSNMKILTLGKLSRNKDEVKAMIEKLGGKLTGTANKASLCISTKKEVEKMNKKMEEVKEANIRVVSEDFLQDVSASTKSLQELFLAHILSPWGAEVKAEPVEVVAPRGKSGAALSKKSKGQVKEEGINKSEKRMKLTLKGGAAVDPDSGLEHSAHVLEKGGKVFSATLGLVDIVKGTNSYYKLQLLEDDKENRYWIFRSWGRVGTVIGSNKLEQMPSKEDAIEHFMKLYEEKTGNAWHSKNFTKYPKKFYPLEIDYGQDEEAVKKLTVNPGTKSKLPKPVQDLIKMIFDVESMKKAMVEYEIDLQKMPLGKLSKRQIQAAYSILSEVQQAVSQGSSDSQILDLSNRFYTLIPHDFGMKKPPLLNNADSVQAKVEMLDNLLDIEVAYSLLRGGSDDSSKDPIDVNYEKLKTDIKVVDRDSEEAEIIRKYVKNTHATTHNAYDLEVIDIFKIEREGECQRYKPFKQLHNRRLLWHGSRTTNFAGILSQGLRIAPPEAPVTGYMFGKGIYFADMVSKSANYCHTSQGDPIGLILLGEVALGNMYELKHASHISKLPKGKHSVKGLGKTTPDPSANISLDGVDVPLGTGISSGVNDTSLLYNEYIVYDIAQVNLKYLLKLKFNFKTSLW
# NAMPT, sequence (P43490 whole entry): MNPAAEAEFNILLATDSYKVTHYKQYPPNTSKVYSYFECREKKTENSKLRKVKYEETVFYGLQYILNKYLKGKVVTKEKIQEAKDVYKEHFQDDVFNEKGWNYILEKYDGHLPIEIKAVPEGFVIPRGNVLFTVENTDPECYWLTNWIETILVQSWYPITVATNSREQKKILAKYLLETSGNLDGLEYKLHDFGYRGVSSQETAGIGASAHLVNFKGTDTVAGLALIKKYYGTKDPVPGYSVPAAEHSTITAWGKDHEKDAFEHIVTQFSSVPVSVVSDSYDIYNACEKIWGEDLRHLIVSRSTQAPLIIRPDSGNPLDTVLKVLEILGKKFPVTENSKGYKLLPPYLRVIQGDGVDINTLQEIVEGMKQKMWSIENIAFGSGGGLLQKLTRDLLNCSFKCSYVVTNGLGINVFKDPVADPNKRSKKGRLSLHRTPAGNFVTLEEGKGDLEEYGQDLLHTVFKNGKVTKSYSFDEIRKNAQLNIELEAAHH
smiles,measurement,setting,value
"O=C(NCc1cccnc1)Nc1ccc(S(=O)(=O)N2CCN(C(=O)c3cc(Cc4n[nH]c(=O)c5ccccc45)ccc3F)CC2)cc1 [DDY02, 1-(4-((4-(2-Fluoro-5-((4-oxo-3,4-dihydrophthalazin-1-yl)methyl)benzoyl)piperazin-1-yl)sulfonyl)phenyl)-3-(pyridin-3-ylmethyl)urea]",cell cycle distribution,[1],dose-dependent G1-phase cell cycle arrest
same,IC50,[2],0.01 ± 0.003 µM
same,colony formation,[3]; 1 μM,"more potent ability to inhibit colony formation compared to Olaparib, albeit slightly less effective than FK866"
same,colony formation,[3]; several concentrations,dose-dependent suppression of colony formation
same,percentage of apoptotic cells (Q2 + Q3),[4]; 0.3 µM,13.34%
same,levels of apoptosis (comparison),[4]; 1 μM,higher levels of apoptosis compared to Olaparib and FK866 alone
same,percentage of apoptotic cells (Q2 + Q3),[4]; 1 μM,21.20%
same,percentage of apoptotic cells (Q2 + Q3),[4]; 3 µM,48.3%
same,IC50,[5],4.43 ± 0.04 µM
same,melting point,,197 to 198 °C
same,IC50,[6],7.61 ± 0.14 µM
same,cellular NAD levels,"[7]; 24 h, 1 μM",marginally less potent than FK866
same,cellular NAD levels,"[7]; 24 h post-treatment, several concentrations",reduced cellular NAD levels in a dose-dependent manner
same,IC50,[8]; mean ± SD of at least two independent experiments in duplicate,0.05 ± 0.01 µM
same,fold decrease in inhibitory capacity against PARP1 compared to DDY01,[8]; ratio of IC50 values,5.5 fold
same,inhibitory effect on cell migration,[9]; 1 μM,slightly less pronounced inhibitory effect
same,inhibitory effect on cell migration,[9]; 3 μM,further augmented
same,DNA damage (comet assay),[10],increased DNA damage in a concentration-dependent manner
same,accumulation of γ-H2AX,[11]; 1 μM,most substantial effect
same,accumulation of γ-H2AX,[11]; several concentrations,dose-dependent accumulation of γ-H2AX
same,cytotoxic effects after preincubation with NMN,[12],reversed the cytotoxic effects
same,viability at 3 µM,"[13]; Homo sapiens, 72 h, 3.0 μM, MCF-10A, mean ± SEM, read-out: Cell Survival Rate",70.3 ± 1.06%
same,selectivity of cytotoxic activity between breast cancer cells and normal cells (MCF-10A),[13]; comparison of Tables 2 and 3,no selectivity
same,IC50 at 72 h,[14],5.31 ± 0.12 µM
same,BCL2 expression,[15],inhibited BCL2 expression in a dose-dependent manner
same,IC50,[16],10.4 ± 0.16 µM
